# Assay results: patent US9579381B2 (priority 2012, dated 2017)
# Like-named read-outs stand apart in the source and are kept apart here.
# How the values were obtained:
# [1] = system: M. turberculosis Dormancy Regulon; details: Kumar et al., cited from earlier work
# [2] = system: dos regulon genes (dosR, dosS, fdxA); format: cell-based; details: Mtb H37Rv treated for 4 hours; Real time PCR
# KatG = KatG (Mycobacterium tuberculosis, UniProt P9WIE5); test: CO detection: KatG/tBHP activation, CO trapped by deoxyMyoglobin (MbCO, absorbance 540 nm); format: biochemical
# [3] = system: dos regulon genes (dosR, dosS, fdxA); format: cell-based, M. bovis BCG
# Sequence of KatG (P9WIE5 whole entry): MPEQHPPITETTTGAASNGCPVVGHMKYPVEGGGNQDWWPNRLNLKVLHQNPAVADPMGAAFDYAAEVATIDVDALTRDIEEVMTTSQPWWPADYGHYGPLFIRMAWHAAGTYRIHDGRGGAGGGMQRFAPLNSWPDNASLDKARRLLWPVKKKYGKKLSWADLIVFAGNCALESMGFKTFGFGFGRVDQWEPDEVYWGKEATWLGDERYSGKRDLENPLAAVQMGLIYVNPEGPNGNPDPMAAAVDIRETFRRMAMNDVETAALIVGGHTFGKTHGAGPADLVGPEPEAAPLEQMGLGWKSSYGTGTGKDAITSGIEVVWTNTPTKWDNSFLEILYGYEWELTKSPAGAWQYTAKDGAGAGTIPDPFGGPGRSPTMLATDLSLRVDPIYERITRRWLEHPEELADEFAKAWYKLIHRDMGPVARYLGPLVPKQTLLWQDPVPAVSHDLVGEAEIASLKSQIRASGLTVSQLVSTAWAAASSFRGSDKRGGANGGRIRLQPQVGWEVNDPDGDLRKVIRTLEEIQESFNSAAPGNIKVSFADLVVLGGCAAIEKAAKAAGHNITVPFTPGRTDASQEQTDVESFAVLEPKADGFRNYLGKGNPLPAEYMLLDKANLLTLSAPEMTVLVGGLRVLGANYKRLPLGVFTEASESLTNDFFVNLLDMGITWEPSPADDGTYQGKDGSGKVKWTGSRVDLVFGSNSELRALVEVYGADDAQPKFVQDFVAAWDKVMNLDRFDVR
compound,measurement,setting,value
[C-]#[O+] [CO],+CO/−CO,[1]; gene Rv0079,3.3
same,+CO/−CO,[1]; gene Rv0080,2.9
same,+CO/−CO,[1]; gene Rv0081,2.3
same,+CO/−CO,[1]; gene Rv0669,6
same,+CO/−CO,[1]; gene Rv0670 nroZ,3.2
same,+CO/−CO,[1]; gene Rv0671,2.3
same,+CO/−CO,[1]; gene Rv0672,2.8
same,+CO/−CO,[1]; gene Rv0673 pncB2,1.5
same,+CO/−CO,[1]; gene Rv0674,1.7
same,+CO/−CO,[1]; gene Rv1733,2.3
same,+CO/−CO,[1]; gene Rv1734,2
same,+CO/−CO,[1]; gene Rv1735,1.6
same,+CO/−CO,[1]; gene Rv1736 narX,2.4
same,+CO/−CO,[1]; gene Rv1737 narK2,2.1
same,+CO/−CO,[1]; gene Rv1738,5.8
same,+CO/−CO,[1]; gene Rv1812,1.9
same,+CO/−CO,[1]; gene Rv1813,5.1
same,+CO/−CO,[1]; gene Rv1996,2.4
same,+CO/−CO,[1]; gene Rv1997 ctpF,6.8
same,+CO/−CO,[1]; gene Rv2003,3.3
same,+CO/−CO,[1]; gene Rv2004,4.8
same,+CO/−CO,[1]; gene Rv2005,6.7
same,+CO/−CO,[1]; gene Rv2006 otsB1,2.6
same,+CO/−CO,[1]; gene Rv2007 foxA,7.1
same,+CO/−CO,[1]; gene Rv2028,1.9
same,+CO/−CO,[1]; gene Rv2029 pkfB,6.6
same,+CO/−CO,[1]; gene Rv2030,9.2
same,+CO/−CO,[1]; gene Rv2031 hsoX (acr),5.2
same,+CO/−CO,[1]; gene Rv2032 acg,8.4
same,+CO/−CO,[1]; gene Rv2823 TB31.7,6.8
same,+CO/−CO,[1]; gene Rv2824,7.1
same,+CO/−CO,[1]; gene Rv2825,2.2
same,+CO/−CO,[1]; gene Rv2826 hrp1,10
same,+CO/−CO,[1]; gene Rv2827,4.2
same,+CO/−CO,[1]; gene Rv2828,6.8
same,+CO/−CO,[1]; gene Rv2829,2.6
same,+CO/−CO,[1]; gene Rv2830,5.2
same,+CO/−CO,[1]; gene Rv2831,2.7
same,+CO/−CO,[1]; gene Rv3126,1.8
same,+CO/−CO,[1]; gene Rv3127,2.7
same,+CO/−CO,[1]; gene Rv3130 tgs1,11
same,+CO/−CO,[1]; gene Rv3131,3.3
same,+CO/−CO,[1]; gene Rv3132 dos8 (devS),3.1
same,+CO/−CO,[1]; gene Rv3133 dosR (devR),3
same,+CO/−CO,[1]; gene Rv3134,7.1
"NNC(=O)c1ccncc1 [INH, Isoniazid]","expression of dos regulon genes (dosR, dosS, fdxA)",[2],significantly increased
same,CO produced from activated compound,KatG,"dependent upon dose, time, and KatG"
same,"expression of dos regulon genes (dosR, dosS, fdxA)",[3],significantly increased
"NC(=O)c1ccc[n+]([C@@H]2O[C@H](COP(=O)([O-])OP(=O)(O)OC[C@H]3O[C@@H](n4cnc5c(N)ncnc54)[C@H](O)[C@@H]3O)[C@@H](O)[C@H]2O)c1 [NAD+, NAD]",formation of MbCO (CO-Mb),"KatG; various dosages, Kat G 22.44 μg per reaction, 1 mM tBHP",inhibited
